The values that follow come from ChEMBL document CHEMBL3603763, “Phosphate-modified analogues of m(7)GTP and m(7)Gppppm(7)G-Synthesis and biochemical properties” (Bioorg Med Chem, 2015).

Data set [1] in a line: Chemical stability of the compound in aqueous buffer at pH 4 to 8.5. The class given is physicochemical.
Data set [2] is described as follows: Chemical stability of the compound in glycine buffer at pH 2.2. The class given is physicochemical.
Data set [3] is described as follows: Chemical stability of the compound in […] buffer at pH 8.5. In kind it is physicochemical.
The nature of data set [4]: Chemical stability of the compound in glycine buffer at pH 2.2 after 16 hrs. To be noted: pH 2.2, 16 h. In kind it is physicochemical.
A short description of data set [5]: Chemical stability of the compound in phosphate buffer at pH 7 assessed as compound decomposition. In kind it is physicochemical. As to conditions: read-out: Drug degradation.
Data set [6] has as its target Eukaryotic translation initiation factor 4E (Oryctolagus cuniculus) (UniProt P29338). Description: Inhibition of eIF4E-mediated translation in flexi rabbit reticulocyte lysate using luciferase mRNA by luminescence based luciferase assay relative to m7GpppG.
The next data set has as its target T1, m7GpppX diphosphatase (Homo sapiens, UniProt Q96C86).
T1 sequence (Q96C86 whole entry): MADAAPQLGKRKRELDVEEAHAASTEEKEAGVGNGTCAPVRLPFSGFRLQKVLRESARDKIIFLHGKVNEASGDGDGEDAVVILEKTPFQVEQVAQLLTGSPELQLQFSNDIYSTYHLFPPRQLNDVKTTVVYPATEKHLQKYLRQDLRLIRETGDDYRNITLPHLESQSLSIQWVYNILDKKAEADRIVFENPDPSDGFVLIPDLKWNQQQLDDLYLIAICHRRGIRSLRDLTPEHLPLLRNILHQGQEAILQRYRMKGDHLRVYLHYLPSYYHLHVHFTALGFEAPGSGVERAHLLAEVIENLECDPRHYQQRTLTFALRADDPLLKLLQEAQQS
Description: Stability of the compound assessed as human DcpS-mediated compound hydrolysis at 40 uM after 10 to 180 mins by HPLC analysis. The class given is ADME.

Data set [7] deals with T2, Eukaryotic translation initiation factor 4E (Oryctolagus cuniculus, UniProt P29338). Description: Inhibition of eIF4E-mediated translation in flexi rabbit reticulocyte lysate using luciferase mRNA treated simultaneously with mRNA by luminescence based luciferase assay.
T2 sequence (P29338 whole entry): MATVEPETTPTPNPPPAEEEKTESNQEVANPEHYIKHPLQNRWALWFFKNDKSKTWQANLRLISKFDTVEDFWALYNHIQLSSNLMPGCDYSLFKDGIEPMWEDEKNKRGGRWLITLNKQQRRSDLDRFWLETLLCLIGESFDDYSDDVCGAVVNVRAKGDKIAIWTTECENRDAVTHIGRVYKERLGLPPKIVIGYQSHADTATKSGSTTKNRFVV
The target in data set [8] is T2, Eukaryotic translation initiation factor 4E. Description: Inhibition of eIF4E-mediated translation in flexi rabbit reticulocyte lysate using luciferase mRNA preincubated for 60 mins before mRNA addition by luminescence based luciferase assay.
Data set [9] concerns the target Eukaryotic translation initiation factor 4E (Homo sapiens) (UniProt P06730).
Description: Binding affinity to eIF4E (unknown origin) by fluorescence quenching assay
Data set [10] concerns Serum. Nature of the data set: Stability of the compound in 5% fetal bovine serum at 50 uM up to 240 mins by RP-HPLC analysis. In kind it is ADME, cell-free, Bos taurus. As to conditions: cattle, 4 h.
Data set [11] has as its system Serum. Nature of the data set: Stability of the compound in 10% fetal bovine serum at 50 uM up to 240 mins by RP-HPLC analysis. The class given is ADME, cell-free, Bos taurus. To be noted: cattle, 4 h.
Data set [12] addresses T3, DcpS (m7GpppX diphosphatase) (Homo sapiens, UniProt Q96C86).
T3 sequence (Q96C86 whole entry): T1 sequence (Q96C86 whole entry)
Description: Stability of the compound assessed as human DcpS-mediated compound hydrolysis at 40 uM after 180 mins by HPLC analysis. In kind it is ADME. To be noted: human DcpS enzyme (m7GpppX diphosphatase), read-out: Drug degradation.

Sequence of Eukaryotic translation initiation factor 4E (Oryctolagus cuniculus) (P29338 whole entry): as above
Sequence of Eukaryotic translation initiation factor 4E (Homo sapiens) (P06730 whole entry): as the sequence (P29338 whole entry) above, with P16T, A17T, D174E counted along it

Take `[BH3-]P(=O)(OC[C@H]1O[C@@H](n2c[n+](C)c3c(O)nc(N)nc32)[C@H](O)[C@@H]1O)OP(=O)(O)CP(=O)(O)O` (stereo not given in full): the Stability result is recorded as “Stable” in data set [1] and “Unstable” in [2].

With `[BH3-]P(=O)(OC[C@H]1O[C@@H](n2c[n+](C)c3c(O)nc(N)nc32)[C@H](O)[C@@H]1O)OP(=O)(O)NP(=O)(O)O` (stereo not given in full), the Stability result in data set [3] and in data set [4] was “Unstable” in each case. Moreover, the degraded in [5] is more than 50%.

Regarding `C[n+]1cn([C@@H]2O[C@H](CO[P@](=O)(S)OP(=O)([O-])CP(=O)([O-])O[P@](=O)(S)OC[C@H]3O[C@@H](n4c[n+](C)c5c(O)nc(N)nc54)[C@H](O)[C@@H]3O)[C@@H](O)[C@H]2O)c2nc(N)nc(O)c21`, the Ratio in data set [6] is 1.56.

Take `B[P@](=O)(OC[C@H]1O[C@@H](n2c[n+](C)c3c(O)nc(N)nc32)[C@H](O)[C@@H]1O)OP(=O)([O-])OP(=O)(O)O.N.N.N.N`: on m7GpppX diphosphatase, the Stability result was “Unstable”. The values for the IC50 in [7] and in [8] were 4.12 µM and 3.26 µM, respectively. The compound further showed a Ka in [9] of 136 µM⁻¹.

Consider `C[n+]1cn([C@@H]2O[C@H](COP(=O)(O)OP(=O)(O)OP(=O)(O)OC[C@H]3O[C@@H](n4c[n+](C)c5c([O-])nc(N)nc54)[C@H](O)[C@@H]3O)[C@@H](O)[C@H]2O)c2nc(N)nc([O-])c21`, for which the Ratio in data set [6] was determined as 2.66.

`C[n+]1cn([C@@H]2O[C@H](COP(=O)(O)OP(=O)([O-])OP(=O)(O)OC[C@H]3O[C@@H](n4cnc5c(=O)[nH]c(N)nc54)[C@H](O)[C@@H]3O)[C@@H](O)[C@H]2O)c2nc(N)nc(O)c21`: the Ka in data set [9] worked out at 9.4 µM⁻¹.

Turning to `B[P@@](=O)(OC[C@H]1O[C@@H](n2c[n+](C)c3c(O)nc(N)nc32)[C@H](O)[C@@H]1O)OP(=O)([O-])CP(=O)(O)O.N.N.N.N`, the Stability entry on m7GpppX diphosphatase is given as “Unstable”. The IC50 in data set [7] is 2.55 µM; in [8], 3.26 µM. This compound also gave a Ka in data set [9] of 36.1 µM⁻¹.

With `B[P@](=O)(OC[C@H]1O[C@@H](n2c[n+](C)c3c(O)nc(N)nc32)[C@H](O)[C@@H]1O)OP(=O)([O-])CP(=O)([O-])O[P@@](B)(=O)OC[C@H]1O[C@@H](n2c[n+](C)c3c(O)nc(N)nc32)[C@H](O)[C@@H]1O`, in data set [6], the Ratio was 0.85.

For `B[P@@](=O)(OC[C@H]1O[C@@H](n2c[n+](C)c3c(O)nc(N)nc32)[C@H](O)[C@@H]1O)OP(=O)([O-])CP(=O)([O-])O[P@](B)(=O)OC[C@H]1O[C@@H](n2c[n+](C)c3c(O)nc(N)nc32)[C@H](O)[C@@H]1O`, the Ratio in [6] was 0.99.

Take `C[n+]1cn([C@@H]2O[C@H](CO[P@](=O)(S)OP(=O)([O-])OP(=O)(O)O)[C@@H](O)[C@H]2O)c2nc(N)nc(O)c21.N.N.N.N`: the Stability result at m7GpppX diphosphatase is given as “Unstable”; in the data set with Serum [10] it was “Stable”; in the data set with Serum [11], “Stable”. The same compound displayed a Ka in data set [9] of 371 µM⁻¹.

As to `C[n+]1cn([C@@H]2O[C@H](COP(=O)([O-])OP(=O)(O)OP(=O)(O)O)[C@@H](O)[C@H]2O)c2nc(N)[nH]c(=O)c21`, the Stability entry is recorded as “Stable” at m7GpppX diphosphatase, “Unstable” with Serum [10] and “Unstable” in the data set on Serum [11].

Consider `[BH3-]P(=O)(OC[C@H]1O[C@@H](n2c[n+](C)c3c(O)nc(N)nc32)[C@H](O)[C@@H]1O)OP(=O)(O)OP(=O)(O)O` (stereo not given in full), for which the Stability result is “Stable” in [1] and “Unstable” in data set [2].

Turning to `C[n+]1cn([C@@H]2O[C@H](COP(=O)(O)OP(=O)([O-])OP(=O)(O)OC[C@H]3O[C@@H](n4cnc5c(=O)[nH]c(N)nc54)[C@H](O)[C@@H]3O)[C@@H](O)[C@H]2O)c2nc(N)[nH]c(=O)c21`, the Stability entry on m7GpppX diphosphatase was “Stable”. In [8], the IC50 turned out to be 25 µM.

For the compound `C[n+]1cn([C@@H]2O[C@H](COP(=O)(O)OP(=O)(O)NP(=O)(O)O)[C@@H](O)[C@H]2O)c2nc(N)nc([O-])c21`, the Stability result in data set [3] and in data set [4] was “Unstable” each time.

On to `B[P@](=O)(OC[C@H]1O[C@@H](n2c[n+](C)c3c(O)nc(N)nc32)[C@H](O)[C@@H]1O)OP(=O)([O-])CP(=O)(O)O.N.N.N.N`, for which the Stability result on m7GpppX diphosphatase was “Unstable”. Further, the values for the IC50 in [7] and in [8] were 4.47 µM and 3.22 µM, respectively. This compound displayed a Ka in [9] of 18.5 µM⁻¹.

For `C[n+]1cn([C@@H]2O[C@H](CO[P@](=O)(S)OP(=O)([O-])CP(=O)([O-])O[P@@](=O)(S)OC[C@H]3O[C@@H](n4c[n+](C)c5c(O)nc(N)nc54)[C@H](O)[C@@H]3O)[C@@H](O)[C@H]2O)c2nc(N)nc(O)c21`, the Ratio in data set [6] was 1.86.

Turning to `C[n+]1cn([C@@H]2O[C@H](CO[P@@](=O)(S)OP(=O)([O-])OP(=O)(O)O)[C@@H](O)[C@H]2O)c2nc(N)nc(O)c21.N.N.N.N`, the Stability entry is “Unstable” on m7GpppX diphosphatase, “Stable” with Serum [10] and “Stable” with Serum [11]. Besides, the IC50 in data set [7] turned out to be 1.44 µM; in data set [8], 1.3 µM. Besides, in data set [9], the Ka stood at 190 µM⁻¹.

For the compound `C[n+]1cn([C@@H]2O[C@H](CO[P@@](=O)(S)OP(=O)([O-])CP(=O)(O)O)[C@@H](O)[C@H]2O)c2nc(N)nc(O)c21.N.N.N.N`, the Stability entry on m7GpppX diphosphatase, with Serum [10] and in the data set with Serum [11] was “Unstable” throughout. Further, the IC50 was 3.68 µM in data set [7] and 2.61 µM in data set [8]. This compound showed a Ka in data set [9] of 41.8 µM⁻¹.

For the compound `B[P@@](=O)(OC[C@H]1O[C@@H](n2c[n+](C)c3c(O)nc(N)nc32)[C@H](O)[C@@H]1O)OP(=O)([O-])OP(=O)([O-])O[P@](B)(=O)OC[C@H]1O[C@@H](n2c[n+](C)c3c(O)nc(N)nc32)[C@H](O)[C@@H]1O`, in data set [12], the metabolised at 3 h, 40 µM came out at 81%.

For the compound `B[P@@](=O)(OC[C@H]1O[C@@H](n2c[n+](C)c3c(O)nc(N)nc32)[C@H](O)[C@@H]1O)OP(=O)([O-])OP(=O)(O)O.N.N.N.N`, the Stability entry on m7GpppX diphosphatase is “Unstable”. Moreover, in data set [12], the metabolised at 3 h, 40 µM was found to be 19%. Besides, the IC50 in data set [7] is 1.19 µM; in data set [8], 1.28 µM. This compound registered a Ka in data set [9] of 148 µM⁻¹.

Turning to `B[P@](=O)(OC[C@H]1O[C@@H](n2c[n+](C)c3c(O)nc(N)nc32)[C@H](O)[C@@H]1O)OP(=O)([O-])CP(=O)([O-])O[P@](B)(=O)OC[C@H]1O[C@@H](n2c[n+](C)c3c(O)nc(N)nc32)[C@H](O)[C@@H]1O`, the Ratio in data set [6] was determined as 1.18.

`C[n+]1cn([C@@H]2O[C@H](COP(=O)(O)OP(=O)(O)CP(=O)(O)O)[C@@H](O)[C@H]2O)c2nc(N)nc([O-])c21` registered a Ka in [9] of 19.5 µM⁻¹.

`C[n+]1cn([C@@H]2O[C@H](CO[P@@](=O)(S)OP(=O)([O-])CP(=O)([O-])O[P@](=O)(S)OC[C@H]3O[C@@H](n4c[n+](C)c5c(O)nc(N)nc54)[C@H](O)[C@@H]3O)[C@@H](O)[C@H]2O)c2nc(N)nc(O)c21`: the Ratio in [6] was found to be 1.12.

`C[n+]1cn([C@@H]2O[C@H](COP(=O)(O)OP(=O)(O)OP(=O)(O)OP(=O)(O)OC[C@H]3O[C@@H](n4c[n+](C)c5c([O-])nc(N)nc54)[C@H](O)[C@@H]3O)[C@@H](O)[C@H]2O)c2nc(N)nc([O-])c21`: in data set [6], the Ratio came out at 3.14.

As for `CO[C@H]1[C@@H](O)[C@H](n2c[n+](C)c3c(O)nc(N)nc32)O[C@@H]1COP(=O)(O)OP(=O)([O-])OP(=O)(O)OC[C@H]1O[C@@H](n2cnc3c(=O)[nH]c(N)nc32)[C@H](O)[C@@H]1O`, the Ratio in data set [6] worked out at 1.5.

For `C[n+]1cn([C@@H]2O[C@H](CO[P@](=O)(S)OP(=O)([O-])CP(=O)(O)O)[C@@H](O)[C@H]2O)c2nc(N)nc(O)c21.N.N.N.N`, the Stability result at m7GpppX diphosphatase is “Unstable”; in the data set on Serum [10] it was “Stable”; in the data set with Serum [11] it was “Stable”. Besides, the IC50 is 1.49 µM in data set [7] and 1.24 µM in [8]. Besides, the Ka in data set [9] is 85.9 µM⁻¹.

For orientation: IC50 means the concentration needed to halve the response being measured.
